Reference: ChEMBL document CHEMBL1131916, “Novel series of O-substituted 8-quinolines and 4-benzothiazoles as potent antagonists of the bradykinin B2 receptors” (Bioorg Med Chem Lett, 1999)

How the values were obtained:
B2 bradykinin receptor [1] = biological target: T1, B2 bradykinin receptor (Cavia porcellus, UniProt O70526); assay: Inhibition of BK-induced (4x10E-8M) contraction of isolated guinea pig ileum (GPI); type: functional, tissue-based
T1 sequence (O70526 whole entry): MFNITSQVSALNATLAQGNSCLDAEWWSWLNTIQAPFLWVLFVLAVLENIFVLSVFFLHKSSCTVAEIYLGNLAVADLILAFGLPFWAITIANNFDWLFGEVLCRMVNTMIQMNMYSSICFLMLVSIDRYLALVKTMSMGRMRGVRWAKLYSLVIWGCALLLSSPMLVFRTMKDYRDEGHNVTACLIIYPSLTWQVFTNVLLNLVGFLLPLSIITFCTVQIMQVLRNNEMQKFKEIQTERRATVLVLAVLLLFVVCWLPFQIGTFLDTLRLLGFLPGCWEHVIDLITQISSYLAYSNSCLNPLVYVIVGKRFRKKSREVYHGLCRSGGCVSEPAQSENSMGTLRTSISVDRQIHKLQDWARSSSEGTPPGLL

B2 bradykinin receptor [2] = biological target: T1, B2 bradykinin receptor; assay: Inhibition of specific binding of [3H]BK to bradykinin B2 receptors of guinea pig ileum (GPI); type: tissue-based
[3] = system: B2 bradykinin receptor, Oryctolagus cuniculus; assay: % Inhibition of BK-induced (4x10E-8M) contraction of rabbit jugular vein (RJV) at 10E-5 M concentration
Oryctolagus cuniculus [4] = organism: Oryctolagus cuniculus; assay: Compound was tested for the efficacy in the inhibition of BK-induced (4x10E-8M) contraction of rabbit jugular vein (RJV); type: functional
Oryctolagus cuniculus [5] = organism: Oryctolagus cuniculus; assay: Compound was tested for the percent inhibition of BK-induced (4x10E-8M) contraction of rabbit jugular vein (RJV) at 10E-6 M concentration; type: functional

EC50 (B2 bradykinin receptor [1]) [nM] | IC50 (B2 bradykinin receptor [2]) [nM] | Ki (B2 bradykinin receptor [2]) [nM] | inhibition [3] [%] | EC50 (Oryctolagus cuniculus [4]) [nM] | Structure (SMILES) | Inhibition (Oryctolagus cuniculus [5]) [%]
1300 | 1350 | 160 | 17 |  | Cc1ccc(/C=C/C(=O)NCC(=O)N(C)c2ccc(Cl)c(COc3cccc4scnc34)c2Cl)cc1 | 
450 | 53.8 |  | 59 |  | CCNC(=O)NCC(=O)N(C)c1ccc(OC)c(COc2cccc3ccc(C)nc23)c1C#N | 
23 | 14.2 | 1.8 |  | 66 | Cc1ccc(/C=C/C(=O)NCC(=O)N(C)c2ccc(Cl)c(COc3cccc4sc(C)nc34)c2Cl)cc1 | 
55 | 21.9 | 2.5 |  | 28 | COc1c(N(C)C(=O)CNC(=O)/C=C/c2ccc(C(F)(F)F)cc2)ccc(Cl)c1COc1cccc2ccc(C)nc12 | 
59 | 5.2 | 0.6 | 95 |  | COc1ccc(N(C)C(=O)CNC(=O)/C=C/c2ccc(NC(C)=O)nc2)c(SC)c1COc1cccc2ccc(C)nc12 | 
350 | 0.9 |  |  |  | Cc1ccc2cccc(OCc3c(Cl)ccc(N(C)C(=O)CNC(=O)NCCCCN)c3C#N)c2n1 | 
 | 81.3 | 9.2 | 68 |  | COc1ccc(N(C)C(=O)CNC(=O)/C=C/c2cccc(C)c2)c(OC)c1COc1cccc2ccc(C)nc12 | 
20000 | 11000 | 1300 | 15 |  | Cc1ccc(/C=C/C(=O)NCC(=O)N(C)c2ccc(Cl)c(COc3cccc4sc(-c5ccccc5)nc34)c2Cl)cc1 | 
 | 29.8 | 3.4 |  |  | Cc1nc2c(OCc3c(Cl)ccc(N(C)C(=O)CNC(=O)/C=C/c4ccco4)c3Cl)cccc2s1 | 
 | 11.8 | 1.3 | 81 |  | Cc1ccc2cccc(OCc3c(C)ccc(N(C)C(=O)CNC(=O)/C=C/c4ccc(C(F)(F)F)cc4)c3C)c2n1 | 
130 | 11.5 | 1.3 |  | 260 | COc1ccc(N(C)C(=O)CNC(=O)/C=C/c2ccc(C(F)(F)F)cc2)c(Cl)c1COc1cccc2ccc(C)nc12 | 
260 | 26.2 | 3.1 |  | 5200 | C=C/C=C/C(=O)NCC(=O)N(C)c1ccc(Cl)c(COc2cccc3sc(C)nc23)c1Cl | 
220 | 32.9 | 3.9 | 82 |  | CCCOc1c(N(C)C(=O)CNC(=O)/C=C/c2ccc(C(F)(F)F)cc2)ccc(OC)c1COc1cccc2ccc(C)nc12 | 
56 | 1.2 | 0.3 | 82 |  | Cc1ccc2cccc(OCc3c(Cl)ccc(N(C)C(=O)CNC(=O)/C=C/c4ccc(C(F)(F)F)cc4)c3C#N)c2n1 | 
660 | 56.9 | 6.3 |  | 8700 | COc1ccc(/C=C/C(=O)NCC(=O)N(C)c2ccc(SC)c(COc3cccc4ccc(C)nc34)c2SC)cc1 | 
1100 | 393 | 45.4 |  |  | COc1c(N(C)C(=O)CNC(=O)/C=C/c2ccc(C(F)(F)F)cc2)ccc(SC)c1COc1cccc2ccc(C)nc12 | 41
480 | 47.2 |  | 55 |  | COC(=O)CCCCC(=O)NCC(=O)N(C)c1ccc(OC)c(COc2cccc3ccc(C)nc23)c1SC | 
4.1 | 0.7 | 0.1 | 78 |  | COc1cccc(/C=C/C(=O)NCC(=O)N(C)c2ccc(Cl)c(COc3cccc4ccc(C)nc34)c2C#N)c1 | 
 | 77.8 | 9.1 |  |  | Cc1nc2c(OCc3c(Cl)ccc(N(C)C(=O)CNC(=O)OCc4ccccc4)c3Cl)cccc2s1 | 
100 | 23 | 2.8 |  | 76 | Cc1nc2c(OCc3c(Cl)ccc(N(C)C(=O)CNC(=O)/C=C/c4ccc(C(F)(F)F)cc4)c3Cl)cccc2s1 | 
54 | 10.3 | 1.3 |  | 180 | COc1cccc(/C=C/C(=O)NCC(=O)N(C)c2ccc(Cl)c(COc3cccc4sc(C)nc34)c2Cl)c1 | 
400 | 25.7 | 2.9 |  |  | Cc1ccc2cccc(OCc3c(Cl)ccc(N(C)C(=O)CNC(=O)NCCCC(=O)O)c3C#N)c2n1 | 
290 | 64.8 |  |  |  | CCNC(=O)NCC(=O)N(C)c1ccc(Cl)c(COc2cccc3ccc(C)nc23)c1C#N | 
